In publication PMC12587545, “Noncytotoxic polymyxin derivatives enhance antibiotic action against multidrug-resistant Gram-negative bacteria” (Antimicrobial Agents and Chemotherapy, 2025):
Where “and” joins values, the source holds several entries; their conditions need not be identical. Identical values can stand only once.

What was measured:
E. coli = experiment: Checkerboard assay (antibiotic potentiation); assay type: cell-based, Escherichia coli; conditions: for MICantibiotic + compound: antibiotic MIC with 8 µg/mL (5 µM) compound 1; for MICantibiotic: antibiotic alone; for Potentiation: of antibiotic by 8 µg/mL (5 µM) compound 1
Protocol: (§1) The interaction between the compounds and the antibiotics was evaluated using the fractional inhibitory concentration (FIC) index. FIC indices of ≤0.5 is synergistic, 0.5 < × ≤ 4 is additive, whereas >4 is antagonistic ([34]).
(§2) Synergy was measured by the FIC index, which is the summation of the individual FICs of the antibiotic and the compound. The FIC is calculated by dividing the MIC of one agent in the presence of another by the MIC of the agent alone. […] The FBS studies were conducted by following a previously published protocol ([29], [50]). The FBS was inactivated by heating at 56°C for 30 min with constant swirling.

P. aeruginosa = experiment: Checkerboard assay (antibiotic potentiation); assay type: cell-based, Pseudomonas aeruginosa; conditions: for MICantibiotic: antibiotic alone
Protocol: as §1, §2

A. baumannii = experiment: Checkerboard assay (antibiotic potentiation); assay type: cell-based, Acinetobacter baumannii; set-up: key to FIC index: sum of FICs; ≤0.5 synergistic, 0.5–4 additive, >4 antagonistic; conditions: for MICantibiotic: antibiotic alone
Protocol: (§3) The interaction between the compounds and the antibiotics was evaluated using the fractional inhibitory concentration (FIC) index. FIC indices of ≤0.5 is synergistic, 0.5 < × ≤ 4 is additive, whereas >4 is antagonistic ([34]). […] .
(§4) The bacterial isolates were acquired from ATCC or the Canadian Ward Surveillance (CANWARD) study ([56]). CANWARD isolates were collected from infected patients admitted to participating medical centers across Canada.
(§5) The antibiotic and compounds were serially diluted 2-fold in CAMHB along the x- and y-axis, respectively, on a 96-well plate that was subsequently incubated with equal volumes of bacterial inoculum overnight at 37°C. Wells containing only media were used as negative controls, and wells containing only bacteria were used as positive controls. Synergy was measured by the FIC index, which is the summation of the individual FICs of the antibiotic and the compound. The FIC is calculated by dividing the MIC of one agent in the presence of another by the MIC of the agent alone. Turbidity was confirmed with a Molecular Devices (United States) EMax Plus microplate reader at a wavelength of 590 nm. The FBS studies were conducted by following a previously published protocol ([29], [50]). The FBS was inactivated by heating at 56°C for 30 min with constant swirling.

E. cloacae = experiment: Checkerboard assay (antibiotic potentiation); assay type: cell-based, Enterobacter cloacae; conditions: E. cloacae 121887 (colistin-resistant)
Protocol: as §3, §4, §5

[1] = test system: MDR Gram-negative bacteria clinical isolates; experiment: Checkerboard assay, summary over strains; assay type: cell-based; conditions: of all 14 clinical isolates; number (%)
Protocol: as §1, §5

K. pneumoniae = experiment: Checkerboard assay (antibiotic potentiation); assay type: cell-based, Klebsiella pneumoniae; conditions: for Interpretation: antibiotic + compound 1; for MICantibiotic + compound: antibiotic MIC with 8 µg/mL (5 µM) compound 1; for MICantibiotic: antibiotic alone; for Potentiation: of antibiotic by 8 µg/mL (5 µM) compound 1
Protocol: as §1, §2

[2] = E. coli 94393 (colistin-resistant)
[3] = E. coli 94474 (colistin-resistant)
[4] = P. aeruginosa 262-101856, antibiotic + compound 1
[5] = A. baumannii 110193, antibiotic + compound 1
[6] = A. baumannii ATCC 17978, antibiotic + compound 1
[7] = K. pneumoniae 113250 (colistin-resistant)

MICantibiotic + compound (E. coli; [2]): 1 µg/mL
MICantibiotic (E. coli; [2]): >2 µg/mL
MICantibiotic + compound (E. coli; [3]): 8 µg/mL
MICantibiotic (E. coli; [3]): 16 µg/mL
MICantibiotic + compound (P. aeruginosa; P. aeruginosa 259-96916, antibiotic MIC with 8 µg/mL (5 µM) compound 1): 16 µg/mL
MICantibiotic (P. aeruginosa; P. aeruginosa 259-96916): 512 µg/mL
MICantibiotic + compound (P. aeruginosa; P. aeruginosa 262-101856, antibiotic MIC with 8 µg/mL (5 µM) compound 1): 4 µg/mL
MICantibiotic (P. aeruginosa; P. aeruginosa 262-101856): >64 µg/mL
MICantibiotic + compound (P. aeruginosa; P. aeruginosa 264-105354, antibiotic MIC with 8 µg/mL (5 µM) compound 1): 4 µg/mL
MICantibiotic (P. aeruginosa; P. aeruginosa 264-105354): 64 µg/mL
MICantibiotic + compound (P. aeruginosa; P. aeruginosa 101243 (colistin-resistant), antibiotic MIC with 8 µg/mL (5 µM) compound 1): 16 µg/mL
MICantibiotic (P. aeruginosa; P. aeruginosa 101243 (colistin-resistant)): 128 µg/mL
MICantibiotic + compound (P. aeruginosa; P. aeruginosa 114228 (colistin-resistant), antibiotic MIC with 8 µg/mL (5 µM) compound 1): 2 µg/mL
MICantibiotic (P. aeruginosa; P. aeruginosa 114228 (colistin-resistant)): 2 µg/mL
MICantibiotic + compound (P. aeruginosa; P. aeruginosa PAO1, antibiotic MIC with 8 µg/mL (5 µM) compound 1): 0.125 µg/mL
MICantibiotic + compound (P. aeruginosa; P. aeruginosa PAO1, antibiotic MIC with 8 µg/mL (5 µM) compound 3): 1 µg/mL
MICantibiotic (P. aeruginosa; P. aeruginosa PAO1): 1 µg/mL and 0.5 µg/mL
MICantibiotic + compound (A. baumannii; A. baumannii 92247 (colistin-resistant), antibiotic MIC with 4 µg/mL (2 µM) compound 1): 0.063 µg/mL
MICantibiotic (A. baumannii; A. baumannii 92247 (colistin-resistant)): 0.063 µg/mL
MICantibiotic + compound (A. baumannii; A. baumannii 110193, antibiotic MIC with 4 µg/mL (2 µM) compound 1): 0.25 µg/mL
MICantibiotic (A. baumannii; A. baumannii 110193): 0.25 µg/mL
MICantibiotic + compound (A. baumannii; A. baumannii AB027, antibiotic MIC with 4 µg/mL (2 µM) compound 1): 4 µg/mL
MICantibiotic (A. baumannii; A. baumannii AB027): 8 µg/mL
MICantibiotic + compound (A. baumannii; A. baumannii AB031, antibiotic MIC with 4 µg/mL (2 µM) compound 1): 0.125 µg/mL
MICantibiotic (A. baumannii; A. baumannii AB031): 0.25 µg/mL
MICantibiotic + compound (A. baumannii; A. baumannii ATCC 17978, antibiotic MIC with 8 µg/mL (5 µM) compound 3): 0.125 µg/mL
MICantibiotic + compound (A. baumannii; A. baumannii ATCC 17978, antibiotic MIC with ¼ MIC (≤5 µM) of compound 1): 0.063 µg/mL
MICantibiotic (A. baumannii; A. baumannii ATCC 17978): 0.125 µg/mL
MICantibiotic + compound (E. cloacae; antibiotic MIC with 8 µg/mL (5 µM) compound 1): 16 µg/mL
MICantibiotic (E. cloacae; antibiotic alone): 16 µg/mL
MICantibiotic + compound (K. pneumoniae; [7]): 0.063 µg/mL
MICantibiotic (K. pneumoniae; [7]): 0.063 µg/mL
MICantibiotic + compound (K. pneumoniae; K. pneumoniae 116381): 4 µg/mL
MICantibiotic (K. pneumoniae; K. pneumoniae 116381): 256 µg/mL
Structure (SMILES): C[C@H]1COc2c(N3CCN(C)CC3)c(F)cc3c(=O)c(C(=O)O)cn1c23 [Levofloxacin]
FIC index (E. coli; E. coli 94393 (colistin-resistant), antibiotic + compound 1): x < 0.563
Potentiation (E. coli; [2]): ≥4-fold
Interpretation (E. coli; E. coli 94474 (colistin-resistant), antibiotic + compound 1): Additive (0.5 < × ≤ 4 is additive)
Potentiation (E. coli; [3]): 2 fold
Interpretation (P. aeruginosa; P. aeruginosa 259-96916, antibiotic + compound 1): Synergy (FIC indices of ≤0.5 is synergistic)
Potentiation (P. aeruginosa; P. aeruginosa 259-96916, of antibiotic by 8 µg/mL (5 µM) compound 1): 32 fold
FIC index (P. aeruginosa; [4]): x < 0.125
Interpretation (P. aeruginosa; [4]): Synergy (FIC indices of ≤0.5 is synergistic)
Potentiation (P. aeruginosa; P. aeruginosa 262-101856, of antibiotic by 8 µg/mL (5 µM) compound 1): ≥32-fold
Interpretation (P. aeruginosa; P. aeruginosa 264-105354, antibiotic + compound 1): Synergy (FIC indices of ≤0.5 is synergistic)
Potentiation (P. aeruginosa; P. aeruginosa 264-105354, of antibiotic by 8 µg/mL (5 µM) compound 1): 16 fold
Interpretation (P. aeruginosa; P. aeruginosa 101243 (colistin-resistant), antibiotic + compound 1): Synergy (FIC indices of ≤0.5 is synergistic)
Potentiation (P. aeruginosa; P. aeruginosa 101243 (colistin-resistant), of antibiotic by 8 µg/mL (5 µM) compound 1): 8 fold
Interpretation (P. aeruginosa; P. aeruginosa 114228 (colistin-resistant), antibiotic + compound 1): Additive (0.5 < × ≤ 4 is additive)
Potentiation (P. aeruginosa; P. aeruginosa 114228 (colistin-resistant), of antibiotic by 8 µg/mL (5 µM) compound 1): 1 fold
Interpretation (P. aeruginosa; P. aeruginosa PAO1, antibiotic + compound 1): Synergy (FIC indices of ≤0.5 is synergistic)
Interpretation (P. aeruginosa; P. aeruginosa PAO1, antibiotic + compound 3): Additive (0.5 < × ≤ 4 is additive)
Potentiation (P. aeruginosa; P. aeruginosa PAO1, of antibiotic by 8 µg/mL (5 µM) compound 1): 4 fold
Potentiation (P. aeruginosa; P. aeruginosa PAO1, of antibiotic by 8 µg/mL (5 µM) compound 3): 1 fold
Interpretation (A. baumannii; A. baumannii 92247 (colistin-resistant), antibiotic + compound 1): Additive (0.5 < × ≤ 4 is additive)
Potentiation (A. baumannii; A. baumannii 92247 (colistin-resistant), of antibiotic by 4 µg/mL (2 µM) compound 1): 1 fold
FIC index (A. baumannii; [5]): 1.125
Interpretation (A. baumannii; [5]): Additive (0.5 < × ≤ 4 is additive)
Potentiation (A. baumannii; A. baumannii 110193, of antibiotic by 4 µg/mL (2 µM) compound 1): 1 fold
Interpretation (A. baumannii; A. baumannii AB027, antibiotic + compound 1): Additive (0.5 < × ≤ 4 is additive)
Potentiation (A. baumannii; A. baumannii AB027, of antibiotic by 4 µg/mL (2 µM) compound 1): 2 fold
Interpretation (A. baumannii; A. baumannii AB031, antibiotic + compound 1): Additive (0.5 < × ≤ 4 is additive)
Potentiation (A. baumannii; A. baumannii AB031, of antibiotic by 4 µg/mL (2 µM) compound 1): 2 fold
FIC index (A. baumannii; [6]): 0.650
Interpretation (A. baumannii; [6]): Additive (0.5 < × ≤ 4 is additive)
Interpretation (A. baumannii; A. baumannii ATCC 17978, antibiotic + compound 3): Additive (0.5 < × ≤ 4 is additive)
Potentiation (A. baumannii; A. baumannii ATCC 17978, of antibiotic by 8 µg/mL (5 µM) compound 3): 1 fold
Potentiation (A. baumannii; A. baumannii ATCC 17978, of antibiotic by ¼ MIC (≤5 µM) of compound 1): 2 fold
Interpretation (E. cloacae; antibiotic + compound 1): Additive (0.5 < × ≤ 4 is additive)
Potentiation (E. cloacae; of antibiotic by 8 µg/mL (5 µM) compound 1): 1 fold
clinical isolates in which the antibiotic was synergized by compound 1 [1]: 5 (36%) strains
Interpretation (K. pneumoniae; [7]): Additive (0.5 < × ≤ 4 is additive)
Potentiation (K. pneumoniae; [7]): 1 fold
Interpretation (K. pneumoniae; K. pneumoniae 116381): Synergy (FIC indices of ≤0.5 is synergistic)
Potentiation (K. pneumoniae; K. pneumoniae 116381): 64 fold
